Test results: patent US8476029B2, “MCPP immunoassay” (priority 2009, dated 2013)
In brackets after ≈: the same amount, converted by molar mass. Several values for one entry are separate records, joined by “and”; a condition that tells them apart may be missing. Identical values can stand only once. Like-named read-outs stand apart in the source and are kept apart here.

Experiments:
[1] = tested on: Trazodone antibody (antibody raised from the trazodone-derived immunogen); type: binding, sheep; details: for % CR (percentage cross-reactivity): based on Trazodone (100%)
Protocol: (§1) The resulting immunogens were administered separately to adult sheep on a monthly basis to provide target-specific polyclonal antisera. IgG was extracted from the antisera via caprylic acid/ammonium sulphate precipitation of immunoglobulin. Microtitre plates (Thermo Scientific, 95029180) were coated with antibody (125 μl) in coating buffer (10 mM Tris pH 8.5) at 37° C. for 2 hours. […] The plates were then washed. […] The plates were then washed and 125 μl of TMB (Randox, 4380-15) was added to each well and left at room temperature for 20 minutes in the dark. The reaction was stopped using 125 μl of 0.2M sulphuric acid. The absorbances were then read at 450 nm with an ELISA microplate reader (BIO-TEK Instruments, EL340) and the means calculated. Antibody specificity and sensitivity were then determined.

[2] = tested on: Generic antibody (antibody raised from the mCPP-derived immunogen); type: binding, sheep; details: for % CR (percentage cross-reactivity): based on Nefazodone (100%); for IC50 (standard concentration which produces 50% B/B0): generic antibody
Protocol: as §1

[3] = humans, urine; cited from earlier work

| SMILES | % CR (percentage cross-reactivity) [1] [%] | % B/B0 ([1]; standard conc 0.156 ng/ml) [%] | % B/B0 ([1]; standard conc 0.313 ng/ml) [%] | % B/B0 ([1]; standard conc 0.625 ng/ml) [%] | % B/B0 ([1]; standard conc 1.250 ng/ml) [%] | % B/B0 ([1]; standard conc 2.500 ng/ml) [%] | % B/B0 ([1]; standard conc 5.000 ng/ml) [%] | % B/B0 ([1]; standard conc 10.000 ng/ml) [%] | % CR (percentage cross-reactivity) [2] [%] | IC50 (standard concentration which produces 50% B/B0) [2] [ng/mL] | % B/B0 ([2]; standard conc 0.156 ng/ml) [%] | % B/B0 ([2]; standard conc 0.313 ng/ml) [%] | % B/B0 ([2]; standard conc 0.625 ng/ml) [%] | % B/B0 ([2]; standard conc 1.250 ng/ml) [%] | % B/B0 ([2]; standard conc 2.500 ng/ml) [%] | % B/B0 ([2]; standard conc 5.000 ng/ml) [%] | % B/B0 ([2]; standard conc 10.000 ng/ml) [%] | A450 (absorbance at 450 nm) ([1]; standard conc 0.156 ng/ml) | A450 (absorbance at 450 nm) ([1]; standard conc 0.313 ng/ml) | A450 (absorbance at 450 nm) ([1]; standard conc 0.625 ng/ml) | other results |
| --- | --- | --- | --- | --- | --- | --- | --- | --- | --- | --- | --- | --- | --- | --- | --- | --- | --- | --- | --- | --- | --- |
| CCc1nn(CCCN2CCN(c3cccc(Cl)c3)CC2)c(=O)n1CCOc1ccccc1 [Nefazodone] | 1.38 | 97 | 99 | 97 | 100 | 99 | 105 | 107 | 100 | 3.901 (≈ 0.0083 µM) | 91 | 83 | 73 | 58 | 46 | 34 | 24 |  |  |  | A450 (absorbance at 450 nm) [1]: 1.621 and 1.677 and 1.663 and 1.765 and 1.799 and 1.631 and 1.656; mCPP as share of total metabolites (minor urinary metabolite of nefazodone) [3]: less than 1% |
| O=c1n(CCCN2CCN(c3cccc(Cl)c3)CC2)nc2ccccn12 [Trazodone, 2-(3-[4-(3-chlorophenyl)piperazin-1-yl]propyl)-[1,2,4]triazolo[4,3-α]pyridin-3(2H)-one] | 100 | 47 | 33 | 21 | 14 | 9 | 5 | 3 | 733 |  | 67 | 58 | 48 | 35 | 25 | 18 | 13 | 0.816 | 0.570 | 0.375 | A450 (absorbance at 450 nm) ([1]; standard conc 1.250 ng/ml): 0.237; A450 (absorbance at 450 nm) ([1]; standard conc 2.500 ng/ml): 0.151; A450 (absorbance at 450 nm) ([1]; standard conc 5.000 ng/ml): 0.093; A450 (absorbance at 450 nm) ([1]; standard conc 10.000 ng/ml): 0.057; A450 (absorbance at 450 nm) ([2]; standard conc 0.156 ng/ml): 1.456; A450 (absorbance at 450 nm) ([2]; standard conc 0.313 ng/ml): 1.271; A450 (absorbance at 450 nm) ([2]; standard conc 0.625 ng/ml): 1.041; A450 (absorbance at 450 nm) ([2]; standard conc 1.250 ng/ml): 0.763; A450 (absorbance at 450 nm) ([2]; standard conc 2.500 ng/ml): 0.551; A450 (absorbance at 450 nm) ([2]; standard conc 5.000 ng/ml): 0.398; A450 (absorbance at 450 nm) ([2]; standard conc 10.000 ng/ml): 0.287 |
| Clc1cccc(N2CCNCC2)c1 [mCPP, 1-(3-chlorophenyl)piperazine] | 0.68 | 98 | 100 | 100 | 100 | 101 | 103 | 106 | 46 | 8.476 (≈ 0.0431 µM) | 85 | 79 | 72 | 65 | 55 | 48 | 42 | 1.721 | 1.755 | 1.756 | A450 (absorbance at 450 nm) ([1]; standard conc 1.250 ng/ml): 1.759; A450 (absorbance at 450 nm) ([1]; standard conc 2.500 ng/ml): 1.782; A450 (absorbance at 450 nm) ([1]; standard conc 5.000 ng/ml): 1.814; A450 (absorbance at 450 nm) ([1]; standard conc 10.000 ng/ml): 1.857; A450 (absorbance at 450 nm) ([2]; standard conc 0.156 ng/ml): 1.821; A450 (absorbance at 450 nm) ([2]; standard conc 0.313 ng/ml): 1.679; A450 (absorbance at 450 nm) ([2]; standard conc 0.625 ng/ml): 1.534; A450 (absorbance at 450 nm) ([2]; standard conc 1.250 ng/ml): 1.380; A450 (absorbance at 450 nm) ([2]; standard conc 2.500 ng/ml): 1.183; A450 (absorbance at 450 nm) ([2]; standard conc 5.000 ng/ml): 1.027; A450 (absorbance at 450 nm) ([2]; standard conc 10.000 ng/ml): 0.888 |
